{
  "source": "patent US20260097083A1",
  "about": "“METHOD FOR PRODUCING PANCREATIC ENDODERM CELLS” (Kyoto University, priority 2022, published 2026)",
  "test_system": "pancreatic endoderm cells derived from ES cells (KhES-3 line)",
  "assay": "Expansion culture of pancreatic endoderm cells derived from ES cells",
  "assay_type": "cell-based, human",
  "protocol": "PDX1^+/NKX6.1^+ pancreatic endoderm cells were produced from iPS cells (585A1 line) or ES cells (KhES-3 line) on a 6-well plate using the method by Toyoda et al. (Toyoda T, et al. Stem Cell Reports 2017). Briefly, the undifferentiated cells above were seeded at 1×10^6/well on a 6-well plate coated with iMatrix-511 silk. The cells were cultured in RPMI to which an S1 culture medium (1×B-27 Supplement, 100 U/ml penicillin/streptomycin, 100 ng/ml activin A, and CHIR99021 (Day 1: 3 μM, Days 2 and 3: 1 μM, and Day 4: 0 μM)) had been added for 4 days, in an S2 culture medium (improved MEM to which 0.5×B-27 Supplement, 100 U/ml penicillin/streptomycin, and 50 ng/ml KGF/FGF7 had been added) for 5 days, and in an S3 culture medium (improved MEM to which 0.5×B-27 Supplement, 100 U/ml penicillin/streptomycin, 50 ng/ml KGF/FGF7, 0.2 μM LDN-193189, 0.1 μM SANT-1, and 10 nM TTNPB had been added) for 2 days. The cells were detached from the 6-well plate using trypsin, and were reseeded on a 6-well plate coated with iMatrix-511 silk at 1.5×10^6/well using the S3 culture medium again. […] (5) The cells were suspended in improved MEM (containing 10 μM Y-27632, 0.5×B-27 Supplement, and 100 U/ml penicillin/streptomycin), and were counted. […]",
  "data": [
    {"compound": "C[C@@H](N)[C@H]1CC[C@H](C(=O)Nc2ccncc2)CC1", "note": "[Y-27632]", "values": [
      {"measurement": "expansion culture of the pancreatic endoderm cells", "setting": "FIG. 4-H", "value": "similarly possible"},
      {"measurement": "cell (nuclear) shape", "setting": "Y-27632 10 μM, passaged 5 times (5 weeks), FIGS. 5-B and 5-C", "value": "changed their shape (elongated elliptical shape)"}
    ]}
  ]
}
